Test results published in patent publication US5236903A, “Polypeptide comprising repeated cell-adhesive core sequences” (Azuma; Ichiro, priority 1988, dated 1993).
Read-outs that look alike come from different tables or passages of the source. Ends that are not written are not given here.

Tests used:
[1] = system: B16-BL6 melanoma cells; experiment: Experimental metastasis to lung induced by intravenously injecting B16-BL6 melanoma cells; assay type: in vivo, C57BL/6 mice; conditions: for Antimetastatic effect on metastasis to lungs (in words): 500 μg mixed with cells, i.v.; for Antimetastatic effect compared with the control group (in words): 1,000 μg mixed with cells; for No. of instances of metastasis to lung mean ± SD: B16-BL6
[2] = system: adhesion of B16-BL6 melanoma cells to fibronectin; experiment: Inhibition of B16-BL6 cell adhesion to fibronectin-coated substrate by peptides present during culture; assay type: cell-based, mouse; conditions: for Adhesiveness adhered cell No./substrate (SD) / Percentage in parentheses (inhibition of adhesion to fibronectin): fibronectin coating
Protocol: First, microculture wells were preliminarily coated with 20 μg/ml of the polypeptide to be examined or 5 μg/ml of mouse fibronectin (obtained from Seikagaku Kogyo, Japan) which was used as a positive control. Next 0.05 ml/well of B16-BL6 melamona cells (2×10^4) labeled with a radioactive iodide [^125 I]IUdR was added thereto and the cells were cultured at 37° C. for 20 minutes. The number of cells thus adsorbed by the culture wells was determined by measuring the radioactivity. 1% bovine serum albumin (BSA) was employed as a negative control. The B16-BL6 melanoma cells were labeled by culturing the cells to be labeled at the logarithmic growth phase for 24 hours in an MEM medium containing 5% of FBS and 0.3 μCi/ml of [^125 I]IUdR (200 mCi/mmol; obtained from New England Nuclear, Boston, Mass., USA).
The labeled cells were washed with physiological saline solution twice and suspended in 0.02% EDTA for 1 minute. Subsequently the cells were collected and suspended in a serum-free MEM medium. The cell suspension thus obtained was used in the above examination. The unadsorbed cells in the well were washed away with PBS 4 times. Then the cells adsorbed by the well were dissolved in 0.1 ml of 0.1N NaOH. The number of adsorbed cells was determined by measuring the radioactivity of the dissolved cells.

[3] = system: adhesion of B16-BL6 melanoma cells to fibronectin; experiment: as above; assay type: cell-based, mouse
[4] = system: platelet aggregation induced by B16-BL6 melanoma cells; conditions: 100 μg/ml added to heparinized PRP 7 minutes before the cells; FIGS. 2 and 3
Protocol: The blood of a C57BL/6 mouse was centrifuged at 160×g for 15 minutes to give platelet rich plasma (PRP). As a control, platelet poor plasma (PPP) obtained by centrifuging the blood at 1,000×g for 10 minutes was employed. […] After preincubation for 5 to 7 minutes, the mixture was added to a suspension of B16-BL6 cells in physiological saline (approximately 10^6 /ml) and stirred at 37° C. at 1,000 rpm. During this period, the aggregation of the platelets was monitored with a dual aggregometer (Model 440; Chrono-Log, USA). […] FIGS. 1 to 3 together show the results.

[5] = system: B16-BL6 melanoma cells; conditions: for Metastasis of the cancer to the lungs (in words): 100 μg on 1st or 7th day single dose or 50 μg on 7th, 10th, 13th, 16th days, random polypeptide 100 μg on 7th day
Excerpt: Furthermore, the antimetastatic effect of the compound of the present invention on a spontaneous metastasis model was examined. Namely, B16-BL6 cells were transplanted into the foot pads of C57BL/mice (each group having five animals). […] The transplanted cancer was removed on the 21st day and the mouse was anatomized 2 weeks later to examine the metastasis of the cancer into the lungs.

[6] = system: mouse B16-BL6 melanoma cells; experiment: Adhesion of B16-BL6 melanoma cells to substrate coated with polypeptide or fibronectin; assay type: cell-based; conditions: 37° C., 20 minutes; for Adhesiveness adhered cell No./substrate (SD): wells coated with 20 μg/ml polypeptide, 5 μg/ml fibronectin or 1% BSA, 2×10^4 cells
Excerpt: The adhesiveness to target cells of the compound of the present invention was examined in accordance with a method reported by Saiki et al. […] Namely, a polypeptide of the present invention having a structure of ([…] and a molecular weight of approximately 5,000 prepared in the following Synthetic Example 1 and a comparative polypeptide, ([…], carrying a random sequence of the corresponding amino acids Arg, Gly and Asp and having a molecular weight of approximately 5,000 prepared in the following Synthetic Example 3 were employed. The adhesiveness of each compound was examined by using mouse B16-Bl6 melanoma cells as the target. First, microculture wells were preliminarily coated with 20 μg/ml of the polypeptide to be examined or 5 μg/ml of mouse fibronectin (obtained from Seikagaku Kogyo, Japan) which was used as a positive control. Next 0.05 ml/well of B16-BL6 melamona cells (2×10^4) labeled with a radioactive iodide [^125 I]IUdR was added thereto and the cells were cultured at 37° C. for 20 minutes. […] Subsequently the cells were collected and suspended in a serum-free MEM medium. The cell suspension thus obtained was used in the above examination. The unadsorbed cells in the well were washed away with PBS 4 times. Then the cells adsorbed by the well were dissolved in 0.1 ml of 0.1N NaOH. The number of adsorbed cells was determined by measuring the radioactivity of the dissolved cells.

[7] = system: Lewis lung cancer cells (3 LL); experiment: Experimental metastasis to lung induced by injecting Lewis lung cancer cells (3LL); assay type: in vivo, C57BL/6 mice; conditions: for No. of instances of metastasis to lung mean ± SD: 3LL
Protocol: Namely, portions of 2, 20 and 100 μg of the above compound were each mixed with 3×10^4 Lewis lung cancer cells (3 LL) and administered to a group of C57BL/6 mice in the same manner as the one described in the above (b). Thus the antimetastatic effect of this compound was examined.

[8] = system: B16-BL6 melanoma cells; experiment: Distribution and retention of [125I]IUdR-labeled B16-BL6 melanoma cells in organs
Protocol: B16-BL6 cells at the logarithmic growth phase were labeled with [^125 I]IUdR. […] The liver, kidneys, spleen and lungs of each animal were removed 30 minutes or 24 hours after the administration and the radioactivity in these organs was determined. Mice which received PBS were used as control animals.

[9] = system: erythrocytes, spleen and thymus cells
[10] = Test 1, simultaneous (mixed with 5×10^4 cells, i.v.), 500 μg, colonies counted after 14 days
[11] = incubated with 100 μg/ml peptide
[12] = incubated with 500 μg/ml peptide
[13] = 100 μg/animal, administration date 7
[14] = 100 μg/animal, administration date 14
[15] = 100 μg/animal, administration date 20
[16] = 50 × 4 μg/animal, administration dates 7, 10, 13, 16
[17] = 500 μg/mouse with labeled cells i.v.

Which results are given for `Cl.N=C(N)NCCC[C@H](N)C(=O)NCC(=O)N[C@@H](CC(=O)O)C(=O)O` [Arg-Gly-Asp, L-arginylglycylaspartate hydrochloride, reference compound]?
Amount needed relative to that of the polypeptide compound of the invention ([1]; Test 1): approximately 6 times; Antimetastatic effect on metastasis to lungs (in words) ([1]; Test 1): no such antimetastatic effect; Metastasis to lung mean ± SD [1, 10]: 46 ± 14; Metastasis to lung mean ± SD ([1]; Test 1, simultaneous, 3000 μg, 14 days): 18 ± 24; Amount needed to achieve an antimetastatic effect comparable to that of Poly(Arg-Gly-Asp) ([1]; Test 1, versus 500 μg Poly(Arg-Gly-Asp)): 3,000 μg; Inhibition of adhesion of fibronectin to cells (in words) ([2]; 100 or 500 μg/ml peptide (His-Gly-Gly 500 μg/ml), hydrochloride): dose-dependently inhibited; Adhesiveness adhered cell No./substrate (SD) [2, 11]: 5320 ± 52 adhered cell No./substrate; Adhesiveness adhered cell No./substrate (SD) [2, 12]: 3708 ± 265 adhered cell No./substrate; Percentage in parentheses (inhibition of adhesion to fibronectin) [2, 12]: 37%

`O=C(O)CN(CCN(CC(=O)O)CC(=O)O)CC(=O)O` [EDTA, reference compound] was tested. Which “Inhibition of cell-adhesiveness of fibronectin (in words)” value ([3]; 5 mM) did it give?
Its value is “inhibited”.

Which “Suppression of platelet aggregation induced by B16-BL6 cells (in words)” value [4] does the source give for “Copoly(L-arginine hydrochloride, glycine, L-aspartic acid) [Poly(Arg, Gly, Asp), reference compound]” here?
Its value is “scarcely any suppression capability”.

And the “Metastasis of the cancer to the lungs (in words)” value [5]?
Its value is “did not suppress”.

What about the “Number of metastatic cancer to lung (mm ± SD)” value [5, 13] of the same compound?
The value was 158 ± 62 mm.

And the “Size of transplanted cancer (mm ± SD), observation on 21st day” value [5, 13]?
Its value is 11 ± 3 mm.

What about the “Antimetastatic effect on metastasis to lungs (in words)” value ([1]; Test 1) of the same compound?
Its value is “no such antimetastatic effect”.

And the “Metastasis to lung mean ± SD” value [1, 10]?
The value was 65 ± 4.

And the “Adsorption of B16-BL6 melanoma cells to coated wells (in words)” value [6]?
Its value is “scarcely any adsorption”.

What about the “Adhesiveness adhered cell No./substrate (SD)” value [6] of the same compound?
The value was 1750 ± 395 adhered cell No./substrate.

With “Fibronectin: mouse fibronectin (obtained from Seikagaku Kogyo, Japan) used as a positive control” as the compound, how does the “Adsorption of B16-BL6 melanoma cells to coated wells (in words)” value [6] read?
Its value is “accelerated the adsorption”.

What about the “Adhesiveness adhered cell No./substrate (SD)” value [6] of the same compound?
The value was 5849 ± 513 adhered cell No./substrate.

With “Poly(L-arginyl-glycyl-L-aspartic acid)hydrochloride [Poly(Arg-Gly-Asp)-1500]” as the compound, how does the “Antimetastatic effect compared with the control group (in words)” value ([1]; Test 2) read?
The value was “remarkable antimetastatic effect”.

What about the “Metastasis to lung mean ± SD” value ([1]; Test 2, simultaneous, 1000 μg) of the same compound?
The value was 14 ± 4.

What does the source list for “Poly(L-arginylglycyl-L-aspartate hydrochloride) [Poly(Arg-Gly-Asp)]”?
Suppression of platelet aggregation induced by B16-BL6 cells (in words) [4]: completely suppressed; No. of instances of metastasis to lung mean ± SD ([7]; 500 μg/animal): 34 ± 7; Inhibition of adhesion of fibronectin to cells (in words) ([3]; 100 or 500 μg/ml peptide (His-Gly-Gly 500 μg/ml)): inhibited; Percentage in parentheses (inhibition of adhesion to fibronectin) ([3]; fibronectin coating, incubated with 100 μg/ml peptide): 37%; Metastasis of the cancer to the lungs (in words) [5]: remarkably reduced; Number of metastatic cancer to lung (mm ± SD) ([5]; 100 μg/animal, administration date 1): 24 ± 17 mm; Size of transplanted cancer (mm ± SD), observation on 21st day ([5]; 100 μg/animal, administration date 1, topical): 8 ± 4 mm; Number of metastatic cancer to lung (mm ± SD) [5, 13]: 29 ± 22 mm; Size of transplanted cancer (mm ± SD), observation on 21st day [5, 13]: 9 ± 3 mm; Number of metastatic cancer to lung (mm ± SD) [5, 14]: 120 ± 29 mm; Size of transplanted cancer (mm ± SD), observation on 21st day [5, 14]: 10 ± 4 mm; Number of metastatic cancer to lung (mm ± SD) [5, 15]: 131 ± 79 mm; Size of transplanted cancer (mm ± SD), observation on 21st day [5, 15]: 8 ± 3 mm; Number of metastatic cancer to lung (mm ± SD) [5, 16]: 26 ± 29 mm; Size of transplanted cancer (mm ± SD), observation on 21st day [5, 16]: 8 ± 3 mm; Growth of the transplanted cancer per se (in words) ([5]; same regimens): could not be suppressed; Antimetastatic effect on metastasis to lungs (in words) ([1]; Test 1): remarkably inhibited; Metastasis to lung mean ± SD [1, 10]: 23 ± 3; Antimetastatic effect compared with the control group (in words) ([1]; Test 2): remarkable antimetastatic effect; Metastasis to lung mean ± SD ([1]; Test 2, separate (i.v. 5 minutes after the cells), 1000 μg): 16 ± 4; Metastasis to lung mean ± SD ([1]; Test 2, simultaneous, 1000 μg): 6 ± 4; Antimetastatic effect (in words) ([1]; not mixed, i.v. to mice given B16-BL6 cells 5 minutes before): high antimetastatic effect; Radioactivity in other organs including blood versus control (in words) ([8]; 500 μg/mouse): no significant difference; Radioactivity of the lungs versus control group (in words) ([8]; 500 μg/mouse): markedly lower; Radioactivity (cpm ± SD), Lung ([8]; 500 μg/mouse with 2×10^4 labeled cells i.v., average of 3 animals): 1121 ± 281 cpm; Radioactivity (cpm ± SD), Blood (1 ml) [8, 17]: 304 ± 94 cpm; Radioactivity (cpm ± SD), Kidney [8, 17]: 73 ± 19 cpm; Radioactivity (cpm ± SD), Liver [8, 17]: 195 ± 42 cpm; Radioactivity (cpm ± SD), Spleen [8, 17]: 59 ± 7 cpm; Percentage relative to the administered radioactivity, Lung ([8]; administered 15308 ± 1605 cpm/2 × 10^4 cells): 7.3%; Percentage relative to the administered radioactivity, Blood (1 ml) ([8]; mouse, in vivo): 2.0%; Percentage relative to the administered radioactivity, Kidney ([8]; mouse, in vivo): 0.5%; Percentage relative to the administered radioactivity, Liver ([8]; mouse, in vivo): 1.3%; Percentage relative to the administered radioactivity, Spleen ([8]; mouse, in vivo): 0.4%; Adsorption of B16-BL6 melanoma cells to coated wells (in words) [6]: accelerated the adsorption; Adhesiveness adhered cell No./substrate (SD) [6]: 7967 ± 910 adhered cell No./substrate; Adhesiveness adhered cell No./substrate (SD) [2, 11]: 3687 ± 229 adhered cell No./substrate; Adhesiveness adhered cell No./substrate (SD) [2, 12]: 3715 ± 231 adhered cell No./substrate; Percentage in parentheses (inhibition of adhesion to fibronectin) [2, 12]: 36%

“Poly(Tyr-Ile-Gly-Ser-Arg)HCl (YIGSR; not fully specified; printed as Poly(Tyr-Ile-Gly-Ser-Arg)HCl; also: HCl salt)” was tested. Which “No. of instances of metastasis to lung mean ± SD” value ([7]; 100 μg/animal) did it give?
Its value is 14 ± 11.

What about the “Antimetastatic activity relative to the original pentapeptide” value ([7]; mouse, in vivo) of the same compound?
The value was ~10 times.

And the “Antimetastatic effect on metastasis to the lungs (in words)” value ([7]; polypeptide 2, 20 and 100 μg, pentapeptide 100 μg, mixed with cancer cells)?
Its value is “remarkably inhibited”.

And the “No. of instances of metastasis to lung mean ± SD” value ([1]; 5 μg/animal)?
Its value is 81 ± 9.

And the “No. of instances of metastasis to lung mean ± SD” value ([1]; 20 μg/animal)?
Its value is 43 ± 13.

And the “No. of instances of metastasis to lung mean ± SD” value ([1]; 100 μg/animal)?
Its value is 19 ± 9.

What about the “Cytotoxicity on erythrocytes, spleen and thymus cells” value [9] of the same compound?
Its value is “neither any cytotoxicity”.
